For this test, the target named is Des1 (Homo sapiens (Human), UniProt O15121). In words: Jurkat T cell measurement of conversion of dihydroceramide to ceramide. The test is classed as cell-based. To be noted: for inhibition at 10 µM: read-out: Des1 % Inhib (10 μM); for IC50: read-out: Des1 IC50; for inhibition at 1 µM: read-out: Des1 % Inhib (1 μM); for inhibition at 0.5 µM: read-out: Des1 % Inhib (0.5 μM). The protocol: Jurkat T Cell Measurement of Conversion of Dihydroceramide to Ceramide
Jurkat clone E6-1 cells were grown and then seeded at 10^6 cells/mL in a 96-well plate (400 μL in each well. The cells were administered 100 μL of cell culture media containing 50-μM NBD-C6-dihydroceramide (Des1 substrate), affording a final concentration of substrate of 10 μM. The cells were incubated with substrate at 4° C. for 30 minutes. Following the incubation at 4° C., the cell suspension was centrifuged at 1200 rpm for 3 minutes, and the cell pellet is resuspended in 400 μL of fresh media containing various concentrations of either fenretinide (known Des1 inhibitor control compound) or test article. The final concentrations of control compound and test compounds were tested in a range from 0-10 μM. The cells and compounds were incubated at 37° C. for 3 hours. Following the 3-hour incubation, the plate was centrifuged at 2500 g for 3 minutes at 4° C., followed by collection and transfer of 200 μL of the supernatant to a new 96-well plate with 300 μL of methanol an containing appropriate internal standards for liquid chromatography/tandem mass spectroscopy (LC/MS/MS) analysis (internal standard: 500 nM labetalol and 100 nM alprazolam). The samples were vortexed for 2 minutes followed by centrifugation at 3,220 g for 20 minutes. Following centrifugation, 200 μL of the supernatant was transferred to a new 96-well plate for LC-MS/MS analysis to determine the amount of NBD-C6-ceramide (Des1 product) produced. The assay was typically performed in duplicate. A reduction of at least 30% compared to vehicle control (0 μM test article) is indicative of an active compound, and a reduction of 75% compared to vehicle control is preferred.

[1] abbreviates: 10 μM compound, Jurkat clone E6-1 cells, NBD-C6-dihydroceramide substrate.
The mark [2] stands for this setting: Jurkat clone E6-1 cells, NBD-C6-dihydroceramide substrate.
Where [3] appears, read: 1 μM compound, Jurkat clone E6-1 cells.
The mark [4] stands for this setting: 0.5 μM compound, Jurkat clone E6-1 cells.

Where “and” joins values, the source holds several entries; their conditions need not be identical. Identical values can stand only once. Like-named read-outs stand apart in the source and are kept apart here.

Sequence of Des1 (O15121 whole entry): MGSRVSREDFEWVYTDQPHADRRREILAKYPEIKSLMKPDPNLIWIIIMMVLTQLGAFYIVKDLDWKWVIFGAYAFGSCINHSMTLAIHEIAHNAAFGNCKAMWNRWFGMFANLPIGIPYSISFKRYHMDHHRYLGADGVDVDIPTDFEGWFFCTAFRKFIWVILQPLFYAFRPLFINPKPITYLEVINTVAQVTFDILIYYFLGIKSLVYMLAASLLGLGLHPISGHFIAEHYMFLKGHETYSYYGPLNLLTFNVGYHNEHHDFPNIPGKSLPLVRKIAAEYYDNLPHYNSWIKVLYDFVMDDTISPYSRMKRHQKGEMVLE

The IC50 is the point on the concentration scale where inhibition reaches its midpoint. Turning to `O=C(Nc1ccc(O)cc1)[C@@H]1C[C@H]1c1ccccc1` (relative stereo) [Example 6, (trans)-N-(4-hydroxyphenyl)-2-phenyl-cyclopropane-carboxamide], the inhibition at 10 µM under setting [1] was 76%. In addition, the half-maximal inhibitory concentration (IC50) under setting [2] came to 590 nM.
In the case of `O=C(Nc1ccc(O)cc1)c1ccc2ccccc2c1` [Example 2, N-(4-hydroxy-phenyl)-2-naphthamide], under setting [1], the inhibition at 10 µM amounted to 78%. The IC50 under setting [2] is 840 nM.
In the same order, the values of `C/C(=C\C(=O)Nc1ccc(O)cc1)c1ccccc1` [Example 3, (E)-N-(4-hydroxy-phenyl)-3-phenylbut-2-enamide] are 49% and 4460 nM.
In the same order, the values of `O=C(/C=C/c1ccccc1)Nc1ccc(O)cc1` [Example 4, N-(4-hydroxy-phenyl)-cinnamide] are 85% and 440 nM.
`O=C(Nc1ccc(O)cc1)c1ccc(-c2ccccc2)cc1` [Example 5, N-(4-hydroxy-phcnyl)-[1,1′-biphenyl]-4-carboxamide]: the inhibition at 10 µM under setting [1] came out at 88%. Moreover, the IC50 under setting [2] was determined as 50 nM.
For `O=C(Nc1ccc(O)cn1)c1ccc2ccccc2c1` [Example 7, N-(5-hydroxy-pyridin-2-yl)-2-naphth-amide], the inhibition at 1 µM under setting [3] came to 79.8%. Also, under setting [2], the IC50 amounted to 180 nM.
In the same order, the values of `O=C(/C=C/c1ccccc1)Nc1ccc(O)cn1` [Example 8, N-(5-hydroxy-pyridin-2-yl)-cinnamide] are 85.9% and 60 nM.
`O=C(Nc1ccc(O)cn1)c1ccc(-c2ccccc2)cc1` [Example 9, N-(5-hydroxy-pyridin-2-yl)-(1,1′-biphenyl)-4-carboxamide]: under setting [3], the inhibition at 1 µM came to 93.3%. Besides, the IC50 under setting [2] was 10 nM and 26 nM.
For the compound `O=C(Nc1ccc(O)cn1)[C@@H]1C[C@H]1c1ccccc1` [Example 10, (trans)-N-(5-hydroxy-pyridin-2-yl)-2-phenyl-cyclopropane-carboxamide], the inhibition at 1 µM under setting [3] is 67.2%. Moreover, the IC50 under setting [2] amounted to 230 nM.
`CC(C)=CC(=O)Nc1ccc(O)cc1` [Example 11, N-(4-hydroxy-phenyl)-3-methyl-2-butenamide]: under setting [1], the inhibition at 10 µM was 20%. Moreover, under setting [2], the IC50 was over 10000 nM.
In the same order, the values of `O=C(Nc1ccc(O)cc1)c1cccc2ccccc12` [Example 13, N-(4-hydroxy-phenyl)-1-napthamide] are 38% and 8200 nM.
Consider `O=C(Nc1ccc(O)cc1)c1ccc2[nH]ncc2c1` [Example 14, N-(4-hydroxy-phenyl)-1H-indazole-5-carboxamide], for which the inhibition at 10 µM under setting [1] came out at 14.8%. Further, the IC50 under setting [2] was over 10000 nM.
Consider `O=C(Nc1ccc(O)cc1)c1ccc(C2CCCCC2)cc1` [Example 15, N-(4-hydroxy-phenyl)-4-cyclohexyl-benzamide], for which, under setting [2], the IC50 turned out to be 90 nM. Also, under “Jurkat”, the inhibition at 10 µM was found to be 87%.
Turning to `O=C(Nc1ccc(O)cc1)c1ccc(-c2ccc(O)cc2)cc1` [Example 16, N-(4-hydroxy-phenyl)-4′-hydroxy-biphenyl-4-carboxamide], the inhibition at 10 µM under setting [1] stood at 54%.
Regarding `O=C(Nc1ccc(O)cn1)c1cccc2ccccc12` [Example 19, N-(5-hydroxy-pyridin-2-yl)-1-napthamide], the inhibition at 1 µM under setting [3] was found to be 31%.
For the compound `O=C(Nc1ccc(O)cn1)c1ccc(C2CCCCC2)cc1` [Example 20, N-(5-hydroxy-pyridin-2-yl)-4-cyclohexyl-benzamide], the half-inhibitory concentration (IC50) under setting [2] is 4 nM. Besides, where the note is “Jurkat”, the inhibition at 1 µM was determined as 95.9%.
With `O=C(Nc1ccc(O)cn1)c1ccc(-c2ccc(O)cc2)cc1` [Example 21, N-(5-hydroxy-pyridin-2-yl)-4′-hydroxy-biphenyl-4-carboxamide], the inhibition at 0.5 µM under setting [4] is 62.8%.
For the compound `COc1ccc(-c2ccc(C(=O)Nc3ccc(O)cn3)cc2)cc1` [Example 22, N-(5-hydroxy-pyridin-2-yl)-4′-methoxy-biphenyl-4-carboxamide], under setting [3], the inhibition at 1 µM was found to be 95.4%. Besides, the IC50 under setting [2] was 14 nM.
Taken in the same sequence, the figures for `N#Cc1ccc(-c2ccc(C(=O)Nc3ccc(O)cn3)cc2)cc1` [Example 23, N-(5-hydroxy-pyridin-2-yl)-4′-cyano-biphenyl-4-carboxamide] were 96.3% and 5 nM.
Taken in the same sequence, the figures for `O=C(Nc1ccc(O)cn1)c1ccc(-c2ccc(Cl)cc2)cc1` [Example 24, N-(5-hydroxy-pyridin-2-yl)-4′-chloro-biphenyl-4-carboxamide] were 96.1% and 3 nM.
`O=C(Nc1ccc(O)cn1)c1ccccc1` [Example 25, N-(5-hydroxy-pyridin-2-yl)-benzamide]: the inhibition at 1 µM under setting [3] is 4.44%.
For the compound `COc1ccc(C(=O)Nc2ccc(O)cn2)cc1` [Example 26, N-(5-hydroxy-pyridin-2-yl)-4-methoxy-benzamide], under setting [3], the inhibition at 1 µM was determined as 74.5%. In addition, under setting [2], the IC50 is 240 nM.
`CC(C)c1ccc(C(=O)Nc2ccc(O)cn2)cc1` [Example 27, N-(5-hydroxy-pyridin-2-yl)-4-isopropyl-benzamide]: the IC50 under setting [2] is 16 nM.
On to `O=C(Nc1ccc(O)cn1)[C@H]1CC[C@H](c2ccccc2)CC1` [Example 28, (1r,4r)-N-(5-hydroxy-pyridin-2-yl)-4-phenyl-cyclohexane-1-carboxamide], for which the inhibition at 1 µM under setting [3] is 96.2%. Moreover, the IC50 under setting [2] came to 5 nM.
Taken in the same sequence, the figures for `CCCCCCCC(=O)Nc1ccc(O)cn1` [Example 29, N-(5-hydroxy-pyridin-2-yl)-octanamide] were 95.7% and 6 nM.
For the compound `O=C(Nc1ccc(O)cn1)C1CCCCC1` [Example 30, N-(5-hydroxy-pyridin-2-yl)-cyclohexane-carboxamide], the inhibition at 0.5 µM under setting [4] turned out to be 49.5%.
For `CC(C)CCCCCC(=O)Nc1ccc(O)cn1` [Example 31, N-(5-hydroxy-pyridin-2-yl)-7-methyloctan-amide], under setting [2], the IC50 worked out at 1 nM. Further, the inhibition at 0.5 µM (Jurkat) came to 91%.
Regarding `O=C(Nc1ccc(O)cn1)[C@H]1CC[C@H](c2ccc(Cl)cc2)CC1` [Example 32, (1r,4r)-4-(4-chlorophenyl)-N-(5-hydroxy-pyridin-2-yl)-cyclohexane-1-carboxamide], the concentration for half-maximal inhibition (IC50) under setting [2] was determined as 1 nM. In addition, for the setting “Jurkat”, the inhibition at 0.5 µM was 96.8%.
For `O=C(Nc1ccc(O)cn1)c1ccc(-c2ccccn2)cc1` [Example 33, N-(5-hydroxy-pyridin-2-yl)-4-(pyridin-2-yl)benzamide], under setting [4], the inhibition at 0.5 µM worked out at 71.1%.
In the case of `O=C(Nc1ccc(O)cn1)c1ccc(-c2cccnc2)cc1` [Example 34, N-(5-hydroxy-pyridin-2-yl)-4-(pyridin-3-yl)benzamide], under setting [4], the inhibition at 0.5 µM came to 85.6%.
For `CC(C)(C)c1ccc(C(=O)Nc2ccc(O)cn2)cc1` [Example 35, 4-(tert-butyl)-N-(5-hydroxy-pyridin-2-yl)-benzamide], the inhibition at 0.5 µM under setting [4] stood at 90%. The inhibition at 1 µM under setting [3] was found to be 95.7%. Further, the IC50 under setting [2] is 4 nM.
As to `COCCCCCC(=O)Nc1ccc(O)cn1` [Example 36, N-(5-hydroxy-pyridin-2-yl)-6-methoxy-hexanamide], the inhibition at 0.5 µM under setting [4] amounted to 44.8%.
`CC(C)OCCCCC(=O)Nc1ccc(O)cn1` [Example 37, N-(5-hydroxy-pyridin-2-yl)-5-isopropoxy-pentanamide]: under setting [4], the inhibition at 0.5 µM amounted to 93.7%. Further, the half-inhibitory concentration (IC50) under setting [2] was determined as 21 nM.
In the case of `O=C(Nc1ccc(O)cn1)c1ccc(-c2ccccc2Cl)cc1` [Example 38, 2′-chloro-N-(5-hydroxy-pyridin-2-yl)-[1,1′-biphenyl]-4-carboxamide], the inhibition at 0.5 µM under setting [4] was determined as 95.4%. Further, under setting [2], the IC50 was determined as 19 nM.
Regarding `O=C(Nc1ccc(O)cn1)c1ccc(-c2c(Cl)cccc2Cl)cc1` [Example 39, 2′,6′-dichloro-N-(5-hydroxy-pyridin-2-yI)-[1,1′-biphenyl]-4-carboxamide], the inhibition at 0.5 µM under setting [4] came to 65.9%.
Take `CC(C)O[C@H]1CC[C@H](C(=O)Nc2ccc(O)cn2)CC1` [Example 40, (1r,4r)-N-(5-hydroxypyridin-2-yl)-4-iso-propoxycyclo-hexane-1-carboxamide]: the inhibition at 0.5 µM under setting [4] is 92.6%. The IC50 under setting [2] worked out at 21 nM.
On to `CC(C)O[C@H]1CC[C@@H](C(=O)Nc2ccc(O)cn2)CC1` [Example 41, (1s,4s)-N-(5-hydroxypyridin-2-yl)-4-iso-propoxycyclo-hexane-1-carboxamide], for which the inhibition at 0.5 µM under setting [4] worked out at 81.3%. Moreover, the concentration for half-maximal inhibition (IC50) under setting [2] was 88 nM.
With `CCc1ccc(C(=O)Nc2ccc(O)cn2)cc1` [Example 42, 4-ethyl-N-(5-hydroxy-pyridin-2-yl)-benzamide], the inhibition at 0.5 µM under setting [4] was found to be 85.5%. Also, the IC50 under setting [2] came to 130 nM.
With `Cc1ccc(C(=O)Nc2ccc(O)cn2)cc1` [Example 43, N-(5-hydroxy-pyridin-2-yl)-4-methylbenz-amide], the inhibition at 0.5 µM under setting [4] came out at 59.3%.
